One experiment concerns the target T1, DDR1 protein (Homo sapiens, UniProt Q08345).
T1 construct: purchased Carna Biosciences 08-113
The experiment in a line: Evaluation of DDR1 kinase inhibitory activity (LANCE Ultra TR-FRET). The format is biochemical. The conditions noted are these: DDR1 protein 0.5 nM, ATP 100 μM, 2 hours at room temperature; read-out: DDR-1 IC50. As for the experimental part:
The test was performed in duplicate.

For experiment [1], the target named is T2, DDR1 kinase in DDR1-expressing U2OS cells (Homo sapiens, UniProt Q08345).
T2 construct: host or cells: U2OS
T2 sequence (Q08345 19-913): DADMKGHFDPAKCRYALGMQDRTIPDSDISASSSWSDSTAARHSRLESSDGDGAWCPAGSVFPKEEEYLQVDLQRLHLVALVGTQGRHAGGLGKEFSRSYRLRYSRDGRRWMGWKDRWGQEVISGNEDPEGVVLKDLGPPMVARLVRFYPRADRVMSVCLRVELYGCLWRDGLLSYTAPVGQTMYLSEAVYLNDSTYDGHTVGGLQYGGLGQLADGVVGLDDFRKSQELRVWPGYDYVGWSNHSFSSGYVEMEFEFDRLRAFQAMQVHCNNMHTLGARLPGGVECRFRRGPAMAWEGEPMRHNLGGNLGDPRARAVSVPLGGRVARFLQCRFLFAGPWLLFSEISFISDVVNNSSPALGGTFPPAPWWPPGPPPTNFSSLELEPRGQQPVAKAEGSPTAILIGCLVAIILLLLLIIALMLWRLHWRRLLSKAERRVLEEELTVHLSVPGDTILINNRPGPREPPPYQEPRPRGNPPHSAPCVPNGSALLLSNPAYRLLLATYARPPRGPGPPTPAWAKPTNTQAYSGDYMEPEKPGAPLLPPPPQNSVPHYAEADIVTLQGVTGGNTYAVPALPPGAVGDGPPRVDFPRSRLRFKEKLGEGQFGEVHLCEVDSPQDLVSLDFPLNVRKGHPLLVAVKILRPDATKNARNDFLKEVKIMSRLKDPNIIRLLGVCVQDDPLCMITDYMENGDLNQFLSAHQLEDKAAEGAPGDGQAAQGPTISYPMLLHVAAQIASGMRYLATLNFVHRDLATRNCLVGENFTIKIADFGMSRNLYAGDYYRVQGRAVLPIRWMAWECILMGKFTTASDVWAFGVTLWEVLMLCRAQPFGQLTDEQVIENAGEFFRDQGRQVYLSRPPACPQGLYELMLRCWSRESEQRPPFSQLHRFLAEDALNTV
The experiment in a line: DDR1 kinase inhibitory effect in DDR1-expressing U2OS cells (PathHunter, type I collagen stimulation). The format is cell-based. The conditions noted are these: type I collagen 50 μg/mL, 10% FBS, read-out: DDR-1 IC50. As for the experimental part: Test compounds in DMSO were prepared at 10 mM and diluted with DMSO to final concentrations of 1000, 100, 10, 1, and 0.1 μM. These solutions were diluted further with E-MEM medium (Fujifilm Wako Pure Chemical Industries, 051-07615) containing 10% fetal bovine serum (FBS, Gibco, 10270106) to 60,000, 6,000, 600, 60, 6, and 0.6 nM to obtain test sample solutions.
DDR1-expressing U2OS cells (DiscoverX, 93-0894C3) suspended at 2.5×10^5 cells/mL in 10% FBS+E-MEM medium were seeded in 384-well plates (DiscoverX, 92-0013) in 20 μL portions and cultured overnight at 37° C. and 5% CO2.
The next day, the test sample solutions as prepared were added at 5 μL/well to final concentrations of 10,000, 1,000, 100, 10, 1, and 0.1 nM. After incubation at 37° C. and 5% CO2 for 1 hour, type I collagen (Nitta Gelatin, 631-00771) was added at 5 μL/well to a final concentration of 50 μg/mL, and cultured overnight at 37° C. and 5% CO2.
The next day, the plate was left at room temperature for 1 hour, after which 5 μL/well of detection solution was added according to the instruction manual for the PathHunter (registered trademark) Detection Kit (DiscoverX, 93-0001). […] The test was performed in duplicate.

Experiment [2] deals with anti-glomerular basement membrane antibody-induced nephritis model. Put plainly: In vivo efficacy study using anti-glomerular basement membrane antibody-induced nephritis model. Further details: species or system WKY/NCrlCrlj rats. The conditions noted are these: rat, 24-hour urine. The method, then: The test compound was weighed and suspended in 0.5% methylcellulose (Shin-Etsu Chemical Co., Ltd.)+99.5% Otsuka distilled water (Otsuka Pharmaceutical Factory) to prepare a test sample solution for administration. 300 μL of phosphate buffered saline (Wako, 045-29795) containing 33.3 μg/mL anti-glomerular basement membrane antibody (Chondrex, 70221) was intravenously administered into the tail vein of WKY/NCrlCrlj rats (7-week-old males). 7 days after, the test sample was administered twice a day for 7 days, and the rats were moved to a metabolism/urine collection cage from the 6th to 7th days of the starting of the administration, and the 24-hour urine was collected. The weight of the collected urine was measured. 150 μL of urine was transferred to a sample cup (650-M, BMBio ST). The albumin concentration in urine was measured using a JCA-BM6050 automatic analyzer (JEOL). The amount of albumin in urine was determined with correction for the measured urine weight. The amounts of albumin in urine in the group without administration of anti-glomerular basement membrane antibody and the group with administration of vehicle were set at 0% and 100%, respectively, and the ratio of the amount of albumin in urine in the group administered with the test compound was calculated.

T1 sequence (Q08345 19-876 isoform Q08345-2 limits assumed): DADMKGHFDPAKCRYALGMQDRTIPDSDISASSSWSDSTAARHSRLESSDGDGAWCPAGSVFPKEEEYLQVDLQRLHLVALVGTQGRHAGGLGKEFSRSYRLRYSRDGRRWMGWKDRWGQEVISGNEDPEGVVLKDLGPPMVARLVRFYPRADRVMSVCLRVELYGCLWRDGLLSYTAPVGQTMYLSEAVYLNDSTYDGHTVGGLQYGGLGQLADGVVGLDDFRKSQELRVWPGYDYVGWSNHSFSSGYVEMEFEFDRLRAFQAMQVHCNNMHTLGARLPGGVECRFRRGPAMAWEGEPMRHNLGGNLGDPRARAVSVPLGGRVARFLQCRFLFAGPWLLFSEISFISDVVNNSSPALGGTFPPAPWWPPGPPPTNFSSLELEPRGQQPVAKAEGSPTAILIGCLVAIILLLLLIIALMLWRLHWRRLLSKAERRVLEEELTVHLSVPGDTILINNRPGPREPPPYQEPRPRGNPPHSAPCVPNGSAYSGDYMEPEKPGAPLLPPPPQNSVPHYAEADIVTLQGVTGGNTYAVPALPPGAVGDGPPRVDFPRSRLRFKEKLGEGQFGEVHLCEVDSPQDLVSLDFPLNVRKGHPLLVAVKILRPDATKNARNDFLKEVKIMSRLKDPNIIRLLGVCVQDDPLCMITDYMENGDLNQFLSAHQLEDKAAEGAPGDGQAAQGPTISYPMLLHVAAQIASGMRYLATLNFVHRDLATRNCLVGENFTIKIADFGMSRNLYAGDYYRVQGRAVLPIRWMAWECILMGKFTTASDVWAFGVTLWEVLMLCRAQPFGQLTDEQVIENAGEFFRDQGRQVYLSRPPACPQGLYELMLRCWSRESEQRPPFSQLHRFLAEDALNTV

`Nc1cnc(C#Cc2cc(C(=O)N[C@H]3C[C@H](OC(F)(F)F)C[C@@H]3O)ccc2OC(F)F)cn1` [Example 4, 3-[2-(5-Aminopyrazin-2-yl)ethynyl]-4-(difluoromethoxy)-N-[(1S,2S,4S)-2-hydroxy-4-(trifluoromethoxy)cyclopentyl]benzamide]: the IC50 (usually the concentration that inhibits the measured activity by half) on DDR1 protein amounted to 0.56 nM; in experiment [1], 18 nM. Moreover, the “Urinary albumin (% of vehicle-administered group)” value in experiment [2] (dose 25 mg/kg twice a day for 7 days) is on record as 69 % of vehicle-administered grou.

Take `COc1nc(N)ncc1C#Cc1cc(C(=O)N[C@H]2C[C@H](OC(F)(F)F)C[C@@H]2O)ccc1OC(F)F` [Example 5, 3-[2-(2-Amino-4-methoxypyrimidin-5-yl)ethynyl]-4-(difluoromethoxy)-N-[(1S,2S,4S)-2-hydroxy-4-(trifluoromethoxy)cyclopentyl]benzamide]: the IC50 on DDR1 protein stood at 0.25 nM; in experiment [1], 1.8 nM. In experiment [2] (dose 10 mg/kg twice a day for 7 days), the “Urinary albumin (% of vehicle-administered group)” value is recorded as 57 % of vehicle-administered grou.

These data come from patent US20260242343A1, “COMPOUND SERVING AS DDR1 KINASE INHIBITOR, AND MEDICINE” (NIPPON SHINYAKU CO., LTD., priority 2022, published 2026).
